From patent publication US7271252B2, “Reagents for detecting efavirenz” (Roche Diagnostics Operations, Inc., priority 2003, dated 2007)
Like-named read-outs stand apart in the source and are kept apart here.

Columns and labels:
[1] = tested on: serum antibodies raised against efavirenz-KLH conjugate; assay: Competitive inhibition ELISA: binding of mouse serum antibody to N-linked BSA-efavirenz conjugate; design: species or system mice; settings: free drug, serum of one mouse, OD450, FIG. 3
Procedure: The sera were titered for antibody activity via an antigen specific ELISA. Wells of a styrene 96-well plate were coated with efavirenz N-linked BSA conjugate 5 by placing 50 μL of a 0.1 μg/mL efavirenz-BSA conjugate solution into 0.1 M potassium carbonate, pH 9.2, in the wells and incubating the covered plate at 37° C. for 1 hour. The solution was removed, and the wells were immediately filled with a post coat solution consisting of 1% gelatin hydrolysate, 2% sucrose, 0.1 M Tris buffer, pH 7.4, and 0.15% TWEEN 20 (all reagents from Sigma Chemical Co.), covered and incubated as above. Subsequently, the plates were rinsed once with 2% sucrose and air-dried. Once dry, the plates were sealed into aluminum foil clad plastic bags with a desiccant and stored at 4° C. until used.
Titering consisted of preparing an initial 1:100 dilution of the sera in PBS-T, then seven serial 1:3 dilutions. […] Color that developed was read in a microplate reader equipped with a 450 nm filter. The color intensities were plotted versus the final serum dilutions, and the dilution point at which 50% of the maximum reading was obtained was recorded.
For determining competitive inhibition, plates treated as above were used. […] Serum dilutions of twice the concentration determined above were then prepared, and 25 μL was placed into each well of the column. […]

[2] = cited from earlier work
[3] = tested on: HIV; settings: cited from earlier work
[4] = tested on: HIV; settings: cited from earlier work; remark: listed apart in the source
[5] = taken with other anti-HIV medicines

O=C1Nc2ccc(Cl)cc2[C@@](C#CC2CC2)(C(F)(F)F)O1 [efavirenz]
competitive inhibition of binding of serum antibodies to the drug conjugate absorbed to the microplate [1]: confers a competitive inhibition of binding | frequency of CNS toxicity at high versus mid plasma levels ([2]; efavirenz levels >4000 μg/L compared with 1000-4000 μg/L): approximately three times more frequent | patients reporting central nervous system (CNS) side effects ([2]; human, in vivo): 20-40% | patients who discontinue therapy because of severity or persistence of CNS side effects ([2]; human, in vivo): about 4% | amount of HIV in the blood (viral load) ([3]; efavirenz): lower the amount of HIV in the blood | CD4 cell count [3, 5]: increase their CD4 cell count | patients' viral load [3, 5]: reduce patients' viral load | virological failure, share of patients ([4]; patients with low plasma levels of efavirenz, <1000 μg/L, 85 total patients): 50% | virological failure, share of patients ([4]; patients with plasma levels of efavirenz 1000-4000 μg/L or more than 4000 μg/L): 18-22%
